The source of these data is ChEMBL document CHEMBL3638389, “Chemokine receptor antagonists” (2014).

For this assay, the target named is C-C chemokine receptor type 2 (Homo sapiens, UniProt P41597). The experiment in a line: Radioligand Binding Assay: Radioligand binding assays were performed in CHO cells expressing human CCR2B and Galpha±16 coupling protein. All compounds were dissolved in DMSO and assays run at a final DMSO concentration of 0.5% (v/v). [125I]-labeled human MCP-1 was purchased from PerkinElmer. Unlabelled human MCP-1 was purchased from PeproTech.Compounds were serially diluted in DMSO before diluting into assay buffer (25 mM HEPES, pH 7.4, 5 mM MgCl2, 1 mM CaCl2, 0.5% BSA) with cryo preserved CHO cells expressing human CCR2B and the Galpha±16 coupling protein (30x10^3/well) and [125I]-MCP-1 (50 pM). The reaction was incubated at room temperature for 90 minutes before transferring to GF/C filter membrane (PerkinElmer) pre-treated with 0.3% polyethyleneimine for 2 hours at 4 C. The filter membrane was washed six times with ice cold wash buffer (25 mM HEPES, pH 7.4, 5 mM MgCl2, 1 mM CaCl2, 500 mM NaCl, 0.01% (m/v) azide), dried, and sealed in a RLB sample bag (Agilent Technologies). Format: cell-based.

Each structure is given as a SMILES string. pIC50, pKi: −log10 of the molar value.

Chain of C-C chemokine receptor type 2 (P41597 whole entry): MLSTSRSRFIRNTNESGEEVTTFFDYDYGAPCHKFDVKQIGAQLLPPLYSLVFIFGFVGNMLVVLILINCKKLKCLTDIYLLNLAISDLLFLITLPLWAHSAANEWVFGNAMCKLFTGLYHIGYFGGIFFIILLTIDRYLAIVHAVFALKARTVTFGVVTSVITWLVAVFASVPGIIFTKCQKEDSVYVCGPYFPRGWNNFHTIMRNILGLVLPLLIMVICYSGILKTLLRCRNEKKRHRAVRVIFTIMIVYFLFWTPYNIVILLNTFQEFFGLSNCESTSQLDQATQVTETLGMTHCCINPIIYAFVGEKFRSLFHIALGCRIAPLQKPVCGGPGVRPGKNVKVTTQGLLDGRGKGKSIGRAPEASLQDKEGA

As a reminder, the pIC50 is −log10 of the IC50, conventionally taken in molar units. By pKi is commonly meant the Ki on a negative log10 scale, so that one unit is a factor of ten. Consider `CO[C@@H]1COCC[C@@H]1N[C@@H]1C[C@H]2CCC[C@@]2(C(=O)N2C[C@@H]3C[C@H]2CN3c2ccc(Cl)c(C(F)(F)F)c2)C1`, for which the pIC50 was 7.75 and the pKi was 7.77.

With `CO[C@@H]1COCC[C@@H]1N[C@@H]1C[C@H]2CCC[C@@]2(C(=O)N2C[C@@H]3C[C@H]2CN3c2cc(C(F)(F)F)cc(C(F)(F)F)c2)C1`, the pIC50 was 5.82.
